Source: ChEMBL document CHEMBL5724806, “Unraveling interindividual differences and functional consequences of gut microbial metabolism of immunosuppressants” (2024)

Key:
Format in all cases: ADME
[1] = (§1) The drug is tested on Bifidobacterium longum strain: DSM20088 for biotransformation under anaerobic condition. The drug concentrations were measured over 6 timepoints collected between 0 and 12 hours of incubation by liquid-chromatography-coupled mass spectrometry (LC–MS); design: dose 5 uM, timepoint 0, 1.5, 3, 6, 9, 12 hours; details: 5 µM
[2] = (§2) The drug is tested on Streptococcus anginosus strain: DSM20563 for biotransformation under microaerobic condition. The drug concentrations were measured over 6 timepoints collected between 0 and 12 hours of incubation by liquid-chromatography-coupled mass spectrometry (LC–MS); design: dose 5 uM, timepoint 0, 1.5, 3, 6, 9, 12 hours; details: 5 µM
[3] = The drug is tested on Eubacterium eligens strain: DSM3376 for biotransformation under anaerobic condition. The drug concentrations were measured over 6 timepoints collected between 0 and 12 hours of incubation by liquid-chromatography-coupled mass spectrometry (LC–MS); design: dose 5 uM, timepoint 0, 1.5, 3, 6, 9, 12 hours; details: lachnospira eligens, 5 µM
[4] = The drug is tested on Streptococcus sanguinis strain: DSM20567 for biotransformation under anaerobic condition. The drug concentrations were measured over 6 timepoints collected between 0 and 12 hours of incubation by liquid-chromatography-coupled mass spectrometry (LC–MS); design: dose 5 uM, timepoint 0, 1.5, 3, 6, 9, 12 hours; details: 5 µM
[5] = The drug is tested on Bacteroides caccae strain: DSM19024 for biotransformation under anaerobic condition. The drug concentrations were measured over 6 timepoints collected between 0 and 12 hours of incubation by liquid-chromatography-coupled mass spectrometry (LC–MS); design: dose 5 uM, timepoint 0, 1.5, 3, 6, 9, 12 hours; details: 5 µM
[6] = The drug is tested on Gemella morbillorum strain: DSM20572 for biotransformation under microaerobic condition. The drug concentrations were measured over 6 timepoints collected between 0 and 12 hours of incubation by liquid-chromatography-coupled mass spectrometry (LC–MS); design: dose 5 uM, timepoint 0, 1.5, 3, 6, 9, 12 hours; details: 5 µM
[7] = as §2, with “the gut metagenome community of A-08 with ENA study accession number: PRJEB31790” for “Streptococcus anginosus strain: DSM20563”, “7” for “6”; design: dose 5 uM, timepoint 0, 0.75, 1.5, 3, 6, 9, 12 hours; details: 5 µM
[8] = The drug is tested on Eubacterium hallii strain: DSM3353 for biotransformation under anaerobic condition. The drug concentrations were measured over 6 timepoints collected between 0 and 12 hours of incubation by liquid-chromatography-coupled mass spectrometry (LC–MS); design: dose 5 uM, timepoint 0, 1.5, 3, 6, 9, 12 hours; details: anaerobutyricum hallii, 5 µM
[9] = as §2, with “the gut metagenome community of P-04 with ENA study accession number: PRJEB31790” for “Streptococcus anginosus strain: DSM20563”, “7” for “6”; design: dose 5 uM, timepoint 0, 0.75, 1.5, 3, 6, 9, 12 hours; details: 5 µM
[10] = The drug is tested on Bacteroides stercoris strain: HM 1036 for biotransformation under anaerobic condition. The drug concentrations were measured over 6 timepoints collected between 0 and 12 hours of incubation by liquid-chromatography-coupled mass spectrometry (LC–MS); design: dose 5 uM, timepoint 0, 1.5, 3, 6, 9, 12 hours; details: 5 µM
[11] = as §1, with “the gut metagenome community of A-03 with ENA study accession number: PRJEB31790” for “Bifidobacterium longum strain: DSM20088”, “7” for “6”; design: dose 5 uM, timepoint 0, 0.75, 1.5, 3, 6, 9, 12 hours; details: 5 µM
[12] = The drug is tested on Lactobacillus paracasei strain: ATCC27092 for biotransformation under anaerobic condition. The drug concentrations were measured over 6 timepoints collected between 0 and 12 hours of incubation by liquid-chromatography-coupled mass spectrometry (LC–MS); design: dose 5 uM, timepoint 0, 1.5, 3, 6, 9, 12 hours; details: lacticaseibacillus paracasei, 5 µM
[13] = The drug is tested on Lactobacillus paracasei strain: ATCC27092 for biotransformation under microaerobic condition. The drug concentrations were measured over 6 timepoints collected between 0 and 12 hours of incubation by liquid-chromatography-coupled mass spectrometry (LC–MS); design: dose 5 uM, timepoint 0, 1.5, 3, 6, 9, 12 hours; details: lacticaseibacillus paracasei, 5 µM
[14] = The drug is tested on Streptococcus salivarius strain: DSM20560 for biotransformation under microaerobic condition. The drug concentrations were measured over 6 timepoints collected between 0 and 12 hours of incubation by liquid-chromatography-coupled mass spectrometry (LC–MS); design: dose 5 uM, timepoint 0, 1.5, 3, 6, 9, 12 hours; details: 5 µM
[15] = as §1, with “the gut metagenome community of A-02 with ENA study accession number: PRJEB31790” for “Bifidobacterium longum strain: DSM20088”, “7” for “6”; design: dose 5 uM, timepoint 0, 0.75, 1.5, 3, 6, 9, 12 hours; details: 5 µM
[16] = The drug is tested on Streptococcus mitis strain: DSM12643 for biotransformation under anaerobic condition. The drug concentrations were measured over 6 timepoints collected between 0 and 12 hours of incubation by liquid-chromatography-coupled mass spectrometry (LC–MS); design: dose 5 uM, timepoint 0, 1.5, 3, 6, 9, 12 hours; details: 5 µM
[17] = The drug is tested on Lactobacillus gasseri strain: DSM20243 for biotransformation under anaerobic condition. The drug concentrations were measured over 6 timepoints collected between 0 and 12 hours of incubation by liquid-chromatography-coupled mass spectrometry (LC–MS); design: dose 5 uM, timepoint 0, 1.5, 3, 6, 9, 12 hours; details: 5 µM
[18] = as §1, with “the gut metagenome community of T-01 with ENA study accession number: PRJEB31790” for “Bifidobacterium longum strain: DSM20088”, “7” for “6”; design: dose 5 uM, timepoint 0, 0.75, 1.5, 3, 6, 9, 12 hours; details: 5 µM
[19] = as §2, with “the gut metagenome community of P-01 with ENA study accession number: PRJEB31790” for “Streptococcus anginosus strain: DSM20563”, “7” for “6”; design: dose 5 uM, timepoint 0, 0.75, 1.5, 3, 6, 9, 12 hours; details: 5 µM
[20] = The drug is tested on Ruminococcus gnavus strain: ATCC29149 for biotransformation under anaerobic condition. The drug concentrations were measured over 6 timepoints collected between 0 and 12 hours of incubation by liquid-chromatography-coupled mass spectrometry (LC–MS); design: dose 5 uM, timepoint 0, 1.5, 3, 6, 9, 12 hours; details: mediterraneibacter gnavus, 5 µM
[21] = The drug is tested on Coprococcus comes strain: ATCC27758 for biotransformation under anaerobic condition. The drug concentrations were measured over 6 timepoints collected between 0 and 12 hours of incubation by liquid-chromatography-coupled mass spectrometry (LC–MS); design: dose 5 uM, timepoint 0, 1.5, 3, 6, 9, 12 hours; details: 5 µM
[22] = as §1, with “the gut metagenome community of A-07 with ENA study accession number: PRJEB31790” for “Bifidobacterium longum strain: DSM20088”, “7” for “6”; design: dose 5 uM, timepoint 0, 0.75, 1.5, 3, 6, 9, 12 hours; details: 5 µM
[23] = as §2, with “the gut metagenome community of T-03 with ENA study accession number: PRJEB31790” for “Streptococcus anginosus strain: DSM20563”, “7” for “6”; design: dose 5 uM, timepoint 0, 0.75, 1.5, 3, 6, 9, 12 hours; details: 5 µM
[24] = The drug is tested on Parabacteroides distasonis strain: DSM20701 for biotransformation under anaerobic condition. The drug concentrations were measured over 6 timepoints collected between 0 and 12 hours of incubation by liquid-chromatography-coupled mass spectrometry (LC–MS); design: dose 5 uM, timepoint 0, 1.5, 3, 6, 9, 12 hours; details: 5 µM
[25] = as §1, with “the gut metagenome community of A-09 with ENA study accession number: PRJEB31790” for “Bifidobacterium longum strain: DSM20088”, “7” for “6”; design: dose 5 uM, timepoint 0, 0.75, 1.5, 3, 6, 9, 12 hours; details: 5 µM
[26] = The drug is tested on Lactobacillus gasseri strain: DSM20243 for biotransformation under microaerobic condition. The drug concentrations were measured over 6 timepoints collected between 0 and 12 hours of incubation by liquid-chromatography-coupled mass spectrometry (LC–MS); design: dose 5 uM, timepoint 0, 1.5, 3, 6, 9, 12 hours; details: 5 µM
[27] = as §2, with “the gut metagenome community of A-05 with ENA study accession number: PRJEB31790” for “Streptococcus anginosus strain: DSM20563”, “7” for “6”; design: dose 5 uM, timepoint 0, 0.75, 1.5, 3, 6, 9, 12 hours; details: 5 µM
[28] = The drug is tested on Collinsella aerofaciens strain: DSM3979 for biotransformation under anaerobic condition. The drug concentrations were measured over 6 timepoints collected between 0 and 12 hours of incubation by liquid-chromatography-coupled mass spectrometry (LC–MS); design: dose 5 uM, timepoint 0, 1.5, 3, 6, 9, 12 hours; details: 5 µM
[29] = The drug is tested on Lactobacillus reuteri strain: DSM20016 for biotransformation under microaerobic condition. The drug concentrations were measured over 6 timepoints collected between 0 and 12 hours of incubation by liquid-chromatography-coupled mass spectrometry (LC–MS); design: dose 5 uM, timepoint 0, 1.5, 3, 6, 9, 12 hours; details: limosilactobacillus reuteri, 5 µM
[30] = as §1, with “the gut metagenome community of A-10 with ENA study accession number: PRJEB31790” for “Bifidobacterium longum strain: DSM20088”, “7” for “6”; design: dose 5 uM, timepoint 0, 0.75, 1.5, 3, 6, 9, 12 hours; details: 5 µM

Row | Bacterial Biotransformation [1] | Bacterial Biotransformation [2] | Bacterial Biotransformation [3] | Bacterial Biotransformation [4] | Bacterial Biotransformation [5] | Bacterial Biotransformation [6] | Bacterial Biotransformation [7] | Bacterial Biotransformation [8] | Bacterial Biotransformation [9] | Bacterial Biotransformation [10] | Bacterial Biotransformation [11] | Bacterial Biotransformation [12] | Bacterial Biotransformation [13] | Bacterial Biotransformation [14] | Bacterial Biotransformation [15] | Bacterial Biotransformation [16] | Bacterial Biotransformation [17] | Bacterial Biotransformation [18] | Bacterial Biotransformation [19] | Bacterial Biotransformation [20] | Structure (SMILES) | other results
1 | Compound NOT metabolized | Compound NOT metabolized | Compound NOT metabolized | Compound NOT metabolized | Compound NOT metabolized | Compound NOT metabolized | Compound NOT metabolized | Compound NOT metabolized | Compound NOT metabolized | Compound NOT metabolized | Compound NOT metabolized | Compound NOT metabolized | Compound NOT metabolized | Compound NOT metabolized | Compound metabolized | Compound NOT metabolized | Compound NOT metabolized | Compound NOT metabolized | Compound NOT metabolized | Compound NOT metabolized | CCC(C)(C)C(=O)O[C@H]1C[C@@H](C)C=C2C=C[C@H](C)[C@H](CC[C@@H]3C[C@@H](O)CC(=O)O3)[C@H]21 [SIMVASTATIN] | Bacterial Biotransformation [21]: Compound metabolized; Bacterial Biotransformation [22]: Compound NOT metabolized; Bacterial Biotransformation [23]: Compound NOT metabolized; Bacterial Biotransformation [24]: Compound NOT metabolized; Bacterial Biotransformation [25]: Compound NOT metabolized; Bacterial Biotransformation [26]: Compound NOT metabolized; Bacterial Biotransformation [27]: Compound NOT metabolized; Bacterial Biotransformation [28]: Compound NOT metabolized; Bacterial Biotransformation [29]: Compound NOT metabolized; Bacterial Biotransformation [30]: Compound NOT metabolized
2 | Compound NOT metabolized | Compound NOT metabolized | Compound NOT metabolized | Compound NOT metabolized | Compound NOT metabolized | Compound NOT metabolized | Compound NOT metabolized | Compound NOT metabolized | Compound NOT metabolized | Compound NOT metabolized | Compound NOT metabolized | Compound NOT metabolized | Compound NOT metabolized | Compound NOT metabolized | Compound NOT metabolized | Compound NOT metabolized | Compound NOT metabolized | Compound NOT metabolized | Compound NOT metabolized | Compound NOT metabolized | CC(C)NCC(O)COc1ccc(CC(N)=O)cc1 (stereo not given) [ATENOLOL] | Bacterial Biotransformation [21]: Compound NOT metabolized; Bacterial Biotransformation [22]: Compound NOT metabolized; Bacterial Biotransformation [23]: Compound NOT metabolized; Bacterial Biotransformation [24]: Compound NOT metabolized; Bacterial Biotransformation [25]: Compound NOT metabolized; Bacterial Biotransformation [26]: Compound NOT metabolized; Bacterial Biotransformation [27]: Compound NOT metabolized; Bacterial Biotransformation [28]: Compound NOT metabolized; Bacterial Biotransformation [29]: Compound NOT metabolized; Bacterial Biotransformation [30]: Compound NOT metabolized
3 | Compound NOT metabolized | Compound NOT metabolized | Compound NOT metabolized | Compound NOT metabolized | Compound NOT metabolized | Compound NOT metabolized | Compound metabolized | Compound NOT metabolized | Compound metabolized | Compound NOT metabolized | Compound metabolized | Compound NOT metabolized | Compound NOT metabolized | Compound NOT metabolized | Compound metabolized | Compound NOT metabolized | Compound NOT metabolized | Compound NOT metabolized | Compound metabolized | Compound metabolized | C[C@]12C=CC(=O)C=C1CC[C@@H]1[C@@H]2[C@@H](O)C[C@@]2(C)[C@H]1CC[C@]2(O)C(=O)CO [PREDNISOLONE] | Bacterial Biotransformation [21]: Compound NOT metabolized; Bacterial Biotransformation [22]: Compound metabolized; Bacterial Biotransformation [23]: Compound NOT metabolized; Bacterial Biotransformation [24]: Compound NOT metabolized; Bacterial Biotransformation [25]: Compound metabolized; Bacterial Biotransformation [26]: Compound NOT metabolized; Bacterial Biotransformation [27]: Compound metabolized; Bacterial Biotransformation [28]: Compound NOT metabolized; Bacterial Biotransformation [29]: Compound NOT metabolized; Bacterial Biotransformation [30]: Compound metabolized
